Laboratory results reported in ChEMBL document CHEMBL4507257, “Data for DCP probe ABT-100” (2021).

Assays:
[1] = target: Cyclin-dependent kinase 4 (Homo sapiens) (UniProt P11802); conditions: Compound concentration 1000.0 nM
[2] = target: Mast/stem cell growth factor receptor Kit (Homo sapiens) (UniProt P10721); conditions: Compound concentration 1000.0 nM
[3] = target: Serine/threonine-protein kinase PAK 4 (Homo sapiens) (UniProt O96013); conditions: Compound concentration 1000.0 nM
[4] = target: Ribosomal protein S6 kinase alpha-1 (Homo sapiens) (UniProt Q15418); conditions: Compound concentration 1000.0 nM
[5] = target: Hormonally up-regulated neu tumor-associated kinase (Homo sapiens) (UniProt P57058); conditions: Compound concentration 1000.0 nM
[6] = target: Discoidin domain-containing receptor 2 (Homo sapiens) (UniProt Q16832); conditions: Compound concentration 1000.0 nM
[7] = target: Tyrosine-protein kinase ABL1 (Homo sapiens) (UniProt P00519); conditions: Compound concentration 1000.0 nM
[8] = target: Alpha-2C adrenergic receptor (Homo sapiens) (UniProt P18825); conditions: Compound concentration 10.0 uM
Alpha-2C adrenergic receptor (Homo sapiens), sequence (P18825 whole entry): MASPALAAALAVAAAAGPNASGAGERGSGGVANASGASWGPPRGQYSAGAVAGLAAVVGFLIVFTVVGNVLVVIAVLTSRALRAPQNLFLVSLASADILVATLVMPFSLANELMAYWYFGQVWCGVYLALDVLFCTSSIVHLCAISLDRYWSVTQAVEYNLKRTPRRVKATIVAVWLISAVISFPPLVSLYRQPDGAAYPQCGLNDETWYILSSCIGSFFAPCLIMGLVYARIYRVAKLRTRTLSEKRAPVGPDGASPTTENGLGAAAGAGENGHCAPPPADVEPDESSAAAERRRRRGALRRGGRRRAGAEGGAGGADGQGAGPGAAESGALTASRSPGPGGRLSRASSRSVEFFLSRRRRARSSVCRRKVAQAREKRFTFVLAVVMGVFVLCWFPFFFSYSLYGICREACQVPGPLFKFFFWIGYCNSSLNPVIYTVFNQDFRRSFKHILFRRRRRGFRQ

[9] = target: Serine/threonine-protein kinase PAK 2 (Homo sapiens) (UniProt Q13177); conditions: Compound concentration 1000.0 nM
[10] = target: cAMP-dependent protein kinase catalytic subunit alpha (Homo sapiens) (UniProt P17612); conditions: Compound concentration 1000.0 nM
[11] = target: Mitogen-activated protein kinase kinase kinase kinase 5 (Homo sapiens) (UniProt Q9Y4K4); conditions: Compound concentration 1000.0 nM
[12] = target: BMP-2-inducible protein kinase (Homo sapiens) (UniProt Q9NSY1); conditions: Compound concentration 1000.0 nM
[13] = target: Mitogen-activated protein kinase kinase kinase 1 (Homo sapiens) (UniProt Q13233); conditions: Compound concentration 1000.0 nM
[14] = target: Activin receptor type-2B (Homo sapiens) (UniProt Q13705); conditions: Compound concentration 1000.0 nM
[15] = target: Proto-oncogene tyrosine-protein kinase ROS (Homo sapiens) (UniProt P08922); conditions: Compound concentration 1000.0 nM
[16] = target: RAC-gamma serine/threonine-protein kinase (Homo sapiens) (UniProt Q9Y243); conditions: Compound concentration 1000.0 nM
[17] = target: Serine/threonine-protein kinase SIK3 (Homo sapiens) (UniProt Q9Y2K2); conditions: Compound concentration 1000.0 nM
[18] = target: Mitogen-activated protein kinase 10 (Homo sapiens) (UniProt P53779); conditions: Compound concentration 1000.0 nM
Mitogen-activated protein kinase 10 (Homo sapiens), sequence (P53779 whole entry): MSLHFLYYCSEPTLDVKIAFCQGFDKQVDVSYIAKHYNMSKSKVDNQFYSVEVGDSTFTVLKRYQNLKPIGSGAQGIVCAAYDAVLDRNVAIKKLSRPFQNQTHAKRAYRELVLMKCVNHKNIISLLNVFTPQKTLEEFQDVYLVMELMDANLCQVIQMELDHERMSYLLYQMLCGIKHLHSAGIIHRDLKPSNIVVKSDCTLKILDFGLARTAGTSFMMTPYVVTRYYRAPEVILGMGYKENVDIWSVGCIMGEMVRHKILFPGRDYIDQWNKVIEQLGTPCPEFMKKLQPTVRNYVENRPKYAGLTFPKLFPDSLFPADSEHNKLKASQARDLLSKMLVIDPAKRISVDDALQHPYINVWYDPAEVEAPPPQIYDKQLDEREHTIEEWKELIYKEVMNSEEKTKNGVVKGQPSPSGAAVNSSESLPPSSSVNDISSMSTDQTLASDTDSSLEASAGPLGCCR

[19] = target: Tyrosine-protein kinase receptor UFO (Homo sapiens) (UniProt P30530); conditions: Compound concentration 1000.0 nM
[20] = target: Serine/threonine-protein kinase 33 (Homo sapiens) (UniProt Q9BYT3); conditions: Compound concentration 1000.0 nM
[21] = target: Mitogen-activated protein kinase kinase kinase 11 (Homo sapiens) (UniProt Q16584); conditions: Compound concentration 1000.0 nM
[22] = target: Hepatocyte growth factor receptor (Homo sapiens) (UniProt P08581); conditions: Compound concentration 1000.0 nM
[23] = target: Serine/threonine-protein kinase STK11 (Homo sapiens) (UniProt Q15831); conditions: Compound concentration 1000.0 nM
[24] = target: 5-hydroxytryptamine receptor 1B (Homo sapiens) (UniProt P28222); conditions: Compound concentration 10.0 uM
[25] = target: Tyrosine-protein kinase ABL2 (Homo sapiens) (UniProt P42684); conditions: Compound concentration 1000.0 nM
Tyrosine-protein kinase ABL2 (Homo sapiens), sequence (P42684 whole entry): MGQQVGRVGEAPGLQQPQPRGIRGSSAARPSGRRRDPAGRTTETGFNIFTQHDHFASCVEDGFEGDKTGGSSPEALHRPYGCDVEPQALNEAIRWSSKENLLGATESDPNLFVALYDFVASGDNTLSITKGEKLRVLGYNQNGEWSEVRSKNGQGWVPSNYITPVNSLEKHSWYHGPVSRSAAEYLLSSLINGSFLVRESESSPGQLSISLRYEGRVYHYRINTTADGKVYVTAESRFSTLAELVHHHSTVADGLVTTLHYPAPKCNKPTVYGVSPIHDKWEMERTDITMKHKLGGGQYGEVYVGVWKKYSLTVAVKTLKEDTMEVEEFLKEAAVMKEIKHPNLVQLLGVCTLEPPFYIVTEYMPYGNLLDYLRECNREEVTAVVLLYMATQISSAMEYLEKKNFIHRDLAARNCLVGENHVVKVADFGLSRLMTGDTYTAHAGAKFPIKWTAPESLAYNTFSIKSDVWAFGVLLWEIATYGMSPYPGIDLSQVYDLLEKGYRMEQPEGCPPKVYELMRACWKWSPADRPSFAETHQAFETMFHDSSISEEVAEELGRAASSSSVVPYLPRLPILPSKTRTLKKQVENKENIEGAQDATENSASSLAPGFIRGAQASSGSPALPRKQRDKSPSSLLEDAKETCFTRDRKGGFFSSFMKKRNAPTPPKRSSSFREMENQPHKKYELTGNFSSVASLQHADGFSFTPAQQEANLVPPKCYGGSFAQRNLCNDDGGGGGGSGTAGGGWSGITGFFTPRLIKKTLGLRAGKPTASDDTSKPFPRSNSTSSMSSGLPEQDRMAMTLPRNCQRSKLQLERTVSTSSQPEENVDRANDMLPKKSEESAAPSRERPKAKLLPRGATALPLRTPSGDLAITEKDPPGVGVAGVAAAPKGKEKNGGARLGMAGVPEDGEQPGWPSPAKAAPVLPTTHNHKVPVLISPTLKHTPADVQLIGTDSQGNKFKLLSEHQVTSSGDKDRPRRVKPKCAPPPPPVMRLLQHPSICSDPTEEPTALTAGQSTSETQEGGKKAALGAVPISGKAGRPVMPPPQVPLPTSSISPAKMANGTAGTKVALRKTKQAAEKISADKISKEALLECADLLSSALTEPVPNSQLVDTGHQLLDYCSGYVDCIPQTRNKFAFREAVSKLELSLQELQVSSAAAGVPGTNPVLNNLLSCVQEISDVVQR

[26] = target: Tyrosine-protein kinase Lck (Homo sapiens) (UniProt P06239); conditions: Compound concentration 1000.0 nM
[27] = target: Histamine H4 receptor (Homo sapiens) (UniProt Q9H3N8); conditions: Compound concentration 10.0 uM
Histamine H4 receptor (Homo sapiens), sequence (Q9H3N8 whole entry): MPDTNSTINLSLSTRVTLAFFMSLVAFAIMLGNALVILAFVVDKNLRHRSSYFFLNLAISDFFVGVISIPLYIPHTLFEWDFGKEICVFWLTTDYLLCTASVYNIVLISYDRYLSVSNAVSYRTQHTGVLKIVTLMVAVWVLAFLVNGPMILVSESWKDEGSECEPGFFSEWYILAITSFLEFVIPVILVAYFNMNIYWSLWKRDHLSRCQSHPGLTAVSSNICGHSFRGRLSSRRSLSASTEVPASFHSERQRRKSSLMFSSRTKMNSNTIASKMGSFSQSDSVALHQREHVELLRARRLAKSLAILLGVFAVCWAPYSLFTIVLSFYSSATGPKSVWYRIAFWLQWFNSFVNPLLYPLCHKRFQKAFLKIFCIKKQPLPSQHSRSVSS

[28] = target: Casein kinase II subunit alpha' (Homo sapiens) (UniProt P19784); conditions: Compound concentration 1000.0 nM
Casein kinase II subunit alpha' (Homo sapiens), sequence (P19784 whole entry, looked up): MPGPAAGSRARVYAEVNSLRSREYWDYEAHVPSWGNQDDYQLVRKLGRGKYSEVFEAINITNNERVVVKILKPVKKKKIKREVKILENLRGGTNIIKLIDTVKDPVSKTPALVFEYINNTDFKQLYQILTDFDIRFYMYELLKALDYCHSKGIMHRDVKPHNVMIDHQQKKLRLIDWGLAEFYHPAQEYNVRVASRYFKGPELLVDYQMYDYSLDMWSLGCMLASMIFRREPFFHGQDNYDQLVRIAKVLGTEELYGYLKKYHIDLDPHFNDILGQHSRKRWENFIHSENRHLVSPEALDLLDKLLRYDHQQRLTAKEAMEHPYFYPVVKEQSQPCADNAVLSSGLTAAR

[29] = target: Tyrosine-protein kinase Lyn (Homo sapiens) (UniProt P07948); conditions: Compound concentration 1000.0 nM
Tyrosine-protein kinase Lyn (Homo sapiens), sequence (P07948 2-512 limits assumed): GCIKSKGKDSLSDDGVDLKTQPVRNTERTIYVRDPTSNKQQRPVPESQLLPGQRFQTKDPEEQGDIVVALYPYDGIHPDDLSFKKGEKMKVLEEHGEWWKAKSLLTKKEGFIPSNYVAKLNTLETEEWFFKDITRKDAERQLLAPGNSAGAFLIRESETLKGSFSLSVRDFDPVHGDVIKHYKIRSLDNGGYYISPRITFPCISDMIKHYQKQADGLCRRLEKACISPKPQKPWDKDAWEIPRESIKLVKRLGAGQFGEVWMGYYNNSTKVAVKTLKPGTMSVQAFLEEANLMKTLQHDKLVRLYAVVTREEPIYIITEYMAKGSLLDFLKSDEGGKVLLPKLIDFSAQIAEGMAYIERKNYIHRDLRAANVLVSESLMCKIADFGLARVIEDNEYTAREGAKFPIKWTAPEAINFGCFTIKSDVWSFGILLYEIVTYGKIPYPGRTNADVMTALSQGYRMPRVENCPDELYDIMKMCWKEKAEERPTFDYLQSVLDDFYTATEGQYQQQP

[30] = target: Phosphatidylinositol 4-phosphate 3-kinase C2 domain-containing subunit beta (Homo sapiens) (UniProt O00750); conditions: Compound concentration 1000.0 nM
[31] = target: Serine/threonine-protein kinase TBK1 (Homo sapiens) (UniProt Q9UHD2); conditions: Compound concentration 1000.0 nM
[32] = target: Vascular endothelial growth factor receptor 1 (Homo sapiens) (UniProt P17948); conditions: Compound concentration 1000.0 nM
[33] = target: Calcium/calmodulin-dependent protein kinase type 1 (Homo sapiens) (UniProt Q14012); conditions: Compound concentration 1000.0 nM
[34] = target: Dual specificity mitogen-activated protein kinase kinase 2 (Homo sapiens) (UniProt P36507); conditions: Compound concentration 1000.0 nM
[35] = target: Serine/threonine-protein kinase SBK1 (Homo sapiens) (UniProt Q52WX2); conditions: Compound concentration 1000.0 nM
[36] = target: Platelet-derived growth factor receptor alpha (Homo sapiens) (UniProt P16234); conditions: Compound concentration 1000.0 nM
[37] = target: Ephrin type-A receptor 6 (Homo sapiens) (UniProt Q9UF33); conditions: Compound concentration 1000.0 nM
Ephrin type-A receptor 6 (Homo sapiens), sequence (Q9UF33 whole entry): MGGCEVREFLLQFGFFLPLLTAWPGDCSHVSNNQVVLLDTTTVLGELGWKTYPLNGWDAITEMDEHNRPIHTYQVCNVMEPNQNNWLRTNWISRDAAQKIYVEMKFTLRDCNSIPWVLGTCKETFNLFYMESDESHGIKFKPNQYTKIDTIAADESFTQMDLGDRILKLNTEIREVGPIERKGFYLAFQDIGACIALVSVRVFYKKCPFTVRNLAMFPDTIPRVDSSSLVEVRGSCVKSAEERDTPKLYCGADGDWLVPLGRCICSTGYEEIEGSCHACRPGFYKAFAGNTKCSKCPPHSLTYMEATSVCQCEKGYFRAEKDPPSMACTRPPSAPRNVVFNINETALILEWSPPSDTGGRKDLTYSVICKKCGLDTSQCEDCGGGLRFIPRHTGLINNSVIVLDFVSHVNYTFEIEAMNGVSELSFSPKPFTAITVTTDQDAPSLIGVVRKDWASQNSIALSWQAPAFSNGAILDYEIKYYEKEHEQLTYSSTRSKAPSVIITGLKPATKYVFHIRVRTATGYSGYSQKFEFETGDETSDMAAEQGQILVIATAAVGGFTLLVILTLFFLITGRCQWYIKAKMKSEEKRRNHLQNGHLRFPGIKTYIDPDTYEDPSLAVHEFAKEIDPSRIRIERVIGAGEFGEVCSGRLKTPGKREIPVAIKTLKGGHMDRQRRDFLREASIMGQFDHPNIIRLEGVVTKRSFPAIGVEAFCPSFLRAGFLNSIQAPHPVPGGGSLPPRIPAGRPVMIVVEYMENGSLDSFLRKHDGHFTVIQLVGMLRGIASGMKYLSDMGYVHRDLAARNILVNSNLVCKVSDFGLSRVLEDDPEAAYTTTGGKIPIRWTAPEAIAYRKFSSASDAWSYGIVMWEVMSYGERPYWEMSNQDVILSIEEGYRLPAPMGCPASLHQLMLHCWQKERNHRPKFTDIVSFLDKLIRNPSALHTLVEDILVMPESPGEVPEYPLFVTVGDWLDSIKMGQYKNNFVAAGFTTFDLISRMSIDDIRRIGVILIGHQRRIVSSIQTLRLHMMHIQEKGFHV

[38] = target: Sigma non-opioid intracellular receptor 1 (Homo sapiens, UniProt Q99720); conditions: Compound concentration 10.0 uM
Sigma non-opioid intracellular receptor 1, sequence (Q99720 whole entry): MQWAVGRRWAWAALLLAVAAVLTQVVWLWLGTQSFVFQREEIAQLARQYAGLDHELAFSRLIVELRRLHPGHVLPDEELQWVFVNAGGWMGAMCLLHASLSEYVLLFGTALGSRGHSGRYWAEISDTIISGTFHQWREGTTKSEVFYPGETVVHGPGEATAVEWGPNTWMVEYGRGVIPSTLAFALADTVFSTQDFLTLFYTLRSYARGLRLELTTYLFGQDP

[39] = target: AP2-associated protein kinase 1 (Homo sapiens) (UniProt Q2M2I8); conditions: Compound concentration 1000.0 nM
[40] = tested on: Epidermal growth factor receptor (Homo sapiens), P00533 [G719C]; conditions: Compound concentration 1000.0 nM
[41] = target: Fibroblast growth factor receptor 4 (Homo sapiens) (UniProt P22455); conditions: Compound concentration 1000.0 nM
[42] = target: Serine/threonine-protein kinase 32C (Homo sapiens) (UniProt Q86UX6); conditions: Compound concentration 1000.0 nM
[43] = target: Serine/threonine-protein kinase WNK4 (Homo sapiens) (UniProt Q96J92); conditions: Compound concentration 1000.0 nM
[44] = tested on: Tyrosine-protein kinase ABL1 (Homo sapiens), P00519 [T315I]; conditions: Compound concentration 1000.0 nM
[45] = target: Bone morphogenetic protein receptor type-1B (Homo sapiens) (UniProt O00238); conditions: Compound concentration 1000.0 nM

Cyclin-dependent kinase 4 (Homo sapiens), sequence (P11802 whole entry): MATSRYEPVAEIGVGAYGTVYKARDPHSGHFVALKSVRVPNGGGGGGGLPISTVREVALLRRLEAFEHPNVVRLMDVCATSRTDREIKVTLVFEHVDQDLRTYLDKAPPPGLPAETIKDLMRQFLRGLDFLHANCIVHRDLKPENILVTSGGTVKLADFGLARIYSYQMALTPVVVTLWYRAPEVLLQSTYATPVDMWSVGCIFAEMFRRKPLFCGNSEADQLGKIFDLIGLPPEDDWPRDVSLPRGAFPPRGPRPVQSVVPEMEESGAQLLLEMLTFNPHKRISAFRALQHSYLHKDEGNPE

Cn1cncc1[C@@](O)(COc1ccc(C#N)cc1-c1ccc(OC(F)(F)F)cc1)c1ccc(C#N)cc1 [A-108]
active: residual activity [37] 3% | inhibition [38] 92.3% | residual activity [44] 6.1%
inactive: residual activity [1] 93% | residual activity [2] 90% | residual activity [3] 100% | residual activity [4] 100% | residual activity [5] 100% | residual activity [6] 95% | residual activity [7] 96% | inhibition [8] 8.51% | residual activity [9] 96% | residual activity [10] 94% | residual activity [11] 100% | residual activity [12] 79% | residual activity [13] 100% | residual activity [14] 100% | residual activity [15] 96% | residual activity [16] 100% | residual activity [17] 97% | residual activity [18] 75% | residual activity [19] 100% | residual activity [20] 69% | residual activity [21] 100% | residual activity [22] 94% | residual activity [23] 100% | inhibition [24] 3.34% | residual activity [25] 100% | residual activity [26] 100% | inhibition [27] -3.79% | residual activity [28] 100% | residual activity [29] 100% | residual activity [30] 95% | residual activity [31] 100% | residual activity [32] 83% | residual activity [33] 100% | residual activity [34] 74% | residual activity [35] 100% | residual activity [36] 100% | residual activity [39] 94% | residual activity [40] 66% | residual activity [41] 100% | residual activity [42] 80% | residual activity [43] 85% | residual activity [45] 96%

Cn1cncc1[C@](O)(COc1ccc(C#N)cc1-c1ccc(OC(F)(F)F)cc1)c1ccc(C#N)cc1 [ABT-100]
inactive: residual activity [1] 100% | residual activity [2] 95% | residual activity [3] 100% | residual activity [4] 100% | residual activity [5] 68% | residual activity [6] 100% | residual activity [7] 100% | inhibition [8] 5% | residual activity [9] 93% | residual activity [10] 81% | residual activity [11] 100% | residual activity [12] 97% | residual activity [13] 90% | residual activity [14] 100% | residual activity [15] 89% | residual activity [16] 100% | residual activity [17] 67% | residual activity [18] 70% | residual activity [19] 100% | residual activity [20] 74% | residual activity [21] 86% | residual activity [22] 74% | residual activity [23] 71% | inhibition [24] -4.28% | residual activity [25] 83% | residual activity [26] 82% | inhibition [27] -6.36% | residual activity [28] 100% | residual activity [29] 90% | residual activity [30] 89% | residual activity [31] 100% | residual activity [32] 98% | residual activity [33] 99% | residual activity [34] 94% | residual activity [35] 100% | residual activity [36] 100% | residual activity [37] 100% | inhibition [38] 42.5% | residual activity [39] 87% | residual activity [40] 82% | residual activity [41] 100% | residual activity [42] 84% | residual activity [43] 100% | residual activity [44] 84% | residual activity [45] 77%
